Assay [1] concerns the target rat or human mGluR2 receptor (UniProt Q14416). The assay can be described thus: calcium ion (Ca2+) mobilization assay for allosteric modulators of mGluR2. It counts as cell-based. The settings on record: potency at approx. EC10 for glutamate; rat or human receptor not given; read-out: mGluR2 Potentiation (EC50). An excerpt: A calcium ion (Ca^2) mobilization assay was used to identify and determine the activity for allosteric modulators of the rat or human mGluR2 receptor. Two formats were used: (1) examine the ability of glutamate to affect the potency of the modulator, by looking at a concentration-response curve of compound at different submaximal glutamate concentrations, and (2) look at the ability of the modulator to affect the potency of glutamate by looking at a concentration-response curve of glutamate at a maximal modulator concentration.
To monitor functional receptor response using calcium mobilization, a cell line stably expressing the rat or human mGluR2 receptor (normally coupled to its intracellular effector molecules through an inhibitory G-protein, Gαi) and Gα16, in a tetracycline-inducible vector was created. Gα16 can promiscuously couple Gs and Gi-coupled receptors to the inositol phospholipid signaling pathway by activating phospholipase Cβ resulting in a Ca^2+ signal (normally Gαq-mediated), that can be monitored with fluorescence plate readers such as FLIPR (Molecular Devices, Fluorescence Imaging Plate Reader), FDSS6000 (Hamamatsu, Fluorescence Drug Screening System), or FlexStation (Molecular Devices). The Ca^2+ mobilization assay was based on the detection of intracellular calcium changes using a selective, calcium-chelating dye: Fluo-3, Fluo-4, or Calcium-3. A large fluorescence intensity increase was observed upon calcium association with the dye. The dye was delivered either with the acetoxy-methyl ester, and washed off, or using a no-wash kit (Molecular Devices). Fluorescence signals stimulated by glutamate were recorded and used to generate the following pharmacological parameters: (1) the potency (EC50) of the compound(s) of interest at approx. EC 10 for glutamate at the rat and human mGluR2 receptors respectively, and (2) a fold-shift of the glutamate EC50 by maximal concentration of compound(s) of interest.

For assay [2] the following is noted: DBA/2 mice; cited from earlier work.
The conditions of assay [3]: rat; cited from earlier work.
The conditions of assay [4]: pentylenetetrazole- and picrotoxin-induced; cited from earlier work.
For assay [5] the following is noted: pretreatment, healthy human subjects; cited from earlier work.
The conditions of assay [6]: mice; cited from earlier work.
For assay [7] the following is noted: compared to placebo; cited from earlier work.
For assay [8] the following is noted: some animal models; cited from earlier work.

Each structure is given as a SMILES string. pEC50: −log10 of the molar value.

Regarding `CCc1cn2c(nc1=O)O[C@H](COc1ccc3c(c1)CCCC3(C)C)C2` [Example 8, (S)-2-(5,5-Dimethyl-5,6,7,8-tetrahydro-naphthalen-2-yloxymethyl)-6-ethyl-2,3-dihydro-oxazolo[3,2-a]pyrimidin-7-one], the pEC50 (usually the EC50 on a negative log10 scale, so that one unit is a factor of ten) in assay [1] was 7.77.
Take `CCC(F)(F)c1cc(=O)nc2n1C[C@@H](COc1ccc3c(c1)CCC3(C)C)O2` [Example 9, (S)-5-(1,1-Difluoro-propyl)-2-(1,1-dimethyl-indan-5-yloxymethyl)-2,3-dihydro-oxazolo[3,2-a]pyrimidin-7-one]: in assay [1], the pEC50 was 7.19.
In the case of `N[C@H](C(=O)O)c1ccc(C(=O)O)c(O)c1` [(S)-4-carboxy-3-hydroxyphenylglycine], in assay [2], the “protection against audiogenic seizures” value was “protects against audiogenic seizures”.
Consider `O=c1ccn2c(n1)O[C@H](COc1ccc3c(c1)CCC3)C2` [Comparative Ex. 1, (S)-2-(Indan-5-yloxymethyl)-2,3-dihydro-oxazolo[3,2-a]pyrimidin-7-one], for which, in assay [1], the pEC50 was 6.35.
On to `N[C@@]1(C(=O)O)CO[C@H]2[C@H](C(=O)O)[C@H]21` [LY379268], for which the “effect on REM sleep and fast EEG” value in assay [3] is “suppresses rapid eye movement (REM) sleep and fast EEG”.
On to `CC1(C)CCc2cc(OC[C@H]3Cn4ccc(=O)nc4O3)ccc21` [Comparative Ex. 3, (R)-2-(1,1-Dimethyl-indan-5-yloxymethyl)-2,3-dihydro-oxazolo[3,2-a]pyrimidin-7-one], for which the pEC50 in assay [1] is 5.04.
With `CC1(C)CCCc2cc(OC[C@@H]3Cn4ccc(=O)nc4O3)ccc21` [Example 2, (S)-2-(5,5-Dimethyl-5,6,7,8-tetrahydro-naphthalen-2-yloxymethyl)-2,3-dihydro-oxazolo[3,2-a]pyrimidin-7-one], in assay [1], the pEC50 was 7.72.
As to `N[C@@]1(C(=O)O)CC[C@H]2[C@H](C(=O)O)[C@H]21` [LY354740], the “effect on chemically induced seizures” value in assay [4] was “attenuates pentylenetetrazole- and picrotoxin-induced seizures”. In addition, in assay [5], the “effect on ketamine-disrupted working memory” value was “attenuation of the disruptive effects”.
With `O=c1ccn2c(n1)O[C@H](COc1ccc3c(c1)CCCC3)C2` [Comparative Ex. 2, (S)-2-(5,6,7,8-Tetrahydro-naphthalen-2-yloxymethyl)-2,3-dihydro-oxazolo[3,2-a]pyrimidin-7-one], the pEC50 in assay [1] was 6.65.
For `Cc1c(OCc2cccc(-c3ccc(C(=O)O)cc3)c2)cc2c(c1C)C(=O)C(C1CCCC1)C2` (stereo not drawn) [biphenyl-indanone A], the “antipsychotic- and anxiolytic-like effects” value in assay [6] is “antipsychotic- and anxiolytic-like effects in mice”.
As for `CC1(C)CCc2cc(OC[C@@H]3Cn4ccc(=O)nc4O3)ccc21` [Example 1, (S)-2-(1,1-Dimethyl-indan-5-yloxymethyl)-2,3-dihydro-oxazolo[3,2-a]pyrimidin-7-one], the pEC50 in assay [1] was 7.54.
Same read-out and setting: in the case of `CC1(C)CCC(C)(C)c2cc(OC[C@@H]3Cn4ccc(=O)nc4O3)ccc21` [Example 4, (S)-2-(5,5,8,8-Tetramethyl-5,6,7,8-tetrahydro-naphthalen-2-yloxymethyl)-2,3-dihydro-oxazolo[3,2-a]pyrimidin-7-one] it was 7.82; in that of `CCc1cn2c(nc1=O)O[C@H](COc1ccc3c(c1)CCC3(C)C)C2` [Example 7, (S)-2-(1,1-Dimethyl-indan-5-yloxymethyl)-6-ethyl-2,3-dihydro-oxazolo[3,2-a]pyrimidin-7-one], 7.70; in that of `CCC(F)(F)c1cc(=O)nc2n1C[C@@H](COc1ccc3c(c1)CCCC3(C)C)O2` [Example 10, (S)-5-(1,1-Difluoro-propyl)-2-(5,5-dimethyl-5,6,7,8-tetrahydro-naphthalen-2-yloxymethyl)-2,3-dihydro-oxazolo[3,2-a]pyrimidin-7-one], 7.82.
With `CSCC[C@H](N)C(=O)N[C@@]1(C(=O)O)CS(=O)(=O)[C@H]2[C@H](C(=O)O)[C@H]21` [LY2140023], the “positive and negative symptoms of schizophrenia” value in assay [7] is reported as “statistically significant improvements”.
Turning to `CC1(C)CCCCc2cc(OC[C@@H]3Cn4ccc(=O)nc4O3)ccc21` [Example 3, (S)-2-(5,5-Dimethyl-6,7,8,9-tetrahydro-5H-benzocyclohepten-2-yloxymethyl)-2,3-dihydro-oxazolo[3,2-a]pyrimidin-7-one], in assay [1], the pEC50 is 7.96.
As for `N[C@]1(C(=O)O)[C@H]2[C@@H](C[C@H]1OCc1ccc(Cl)c(Cl)c1)[C@]2(F)C(=O)O` [MGS0039], in assay [8], the antidepressant-like effects entry is “dose-dependent antidepressant-like effects”.
